Key:
[1] = system: CD34+ blood vessels in trabecular bone; assay: Bone microvasculature after suppression of IL-1β signalling; type: in vivo, BALB/c nude mice and C57BL/6 mice
Method: FIG. 7. IL-1β in the bone microenvironment stimulates expansion of the bone metastatic niche. Effects of adding 40 pg/ml or 5 ng/ml recombinant IL-1β to MDA-MB-231 or T47D breast cancer cells is shown in (a) and effects on adding 20 pg/ml, 40 pg/ml or 5 ng/ml IL-1B on proliferation of HS5, bone marrow, or OB1, osteoblasts, are shown in b) and c) respectively. (d) IL-1 driven alterations to the bone vasculature was measured following CD34 staining in the trabecular region of the tibiae from 10-12-week old female IL-1R1 knockout mice. […] Data are shown as mean+/−SEM, *=P<0.01, **=P<0.001, ***=P<0.0001.
FIG. 8. Suppression of IL-1β signalling affects bone integrity and vasculature. […] Data shown are mean+/−SEM, *=P<0.01, **=P<0.001, ***=P<0.0001 compared with control.
(§1) To model human breast cancer metastasis to human bone implants two human bone discs were implanted subcutaneously into 10-week old female NOD SCID mice (n=10/group) under isofluorane anaesthetic. Mice received an injection of 0.003 mg vetergesic and Septrin was added to the drinking water for 1 week following bone implantation. Mice were left for 4 weeks before injecting 1×10^5 MDA-MB-231 Luc2-TdTomato, MCF7 Luc2 or T47D Luc2 cells in 20% Martigel/79% PBS/1% toluene blue into the two hind mammary fat pads. Primary tumor growth and development of metastases was monitored weekly using an IVIS […] system (Caliper Life Sciences) following sub-cutaneous injection of 30 mg/ml D-luciferin (Invitrogen). On termination of experiments mammary tumors, circulating tumor cells, serum and bone metastases were resected. RNA was processed for downstream analysis by real time PCR, and cell lysates were taken for protein analysis and whole tissue for histology as previously described (Nutter et al., 2014; Ottewell et al., 2014a). […] Tumor cells, serum, and bone were subsequently resected for downstream analysis. Bone metastases were investigated following injection of 5×10^5 MDA-MB-231 GFP (control), MDA-MB-231-IV, MDA-MB-231-IL-1B-positive or MDA-MB-231-IL-1R1-positive cells into the lateral tail vein of 6 to 8-week old female BALB/c nude mice (n=12/group). Tumor growth in bones and lungs was monitored weekly by GFP imaging in live animals. Mice were culled 28 days after tumor cell injection at which timepoint hind limbs, lungs and serum were resected and processed for microcomputed tomography imaging (pCT), histology and ELISA analysis of bone turnover markers and circulating cytokines as described (Holen et al., 2016).

[2] = system: MDA-MB-231Luc2-TdTomato cells; assay: Spontaneous human breast cancer metastasis to human bone implants; type: in vivo, NOD SCID mice
Method: FIG. 4. Pharmacological blockade of IL-1B inhibits spontaneous metastasis to human bone in vivo. Female NOD-SCID mice bearing two 0.5 cm^3 pieces of human femoral bone received intra-mammary injections of MDA-MB-231Luc2-TdTomato cells. […] All animals were culled 35 days following tumour cell injection. Effects on bone metastases (a) were assessed in vivo and immediately post-mortem by luciferase imaging and confirmed ex vivo on histological sections. Data are shown as numbers of photons per second emitted 2 minutes following sub-cutaneous injection of D-luciferin. Effects on numbers of tumour cells detected in the circulation are shown in (b). *=P<0.01. **=P<0.001. ***=P<0.0001.
as §1
Whole blood was centrifuged at 10,000×g for 5 minutes and the serum removed for ELISA assays. The cell pellet was re-suspended in 5 ml of FSM lysis solution (Sigma-Aldrich, Pool, UK) to lyse red blood cells. Remaining cells were re-pelleted, washed 3× in PBS and re-suspended in a solution of PBS/10% FCS. Samples from 10 mice per group were pooled prior to isolation of TdTomato positive tumor cells using a MoFlow High performance cell sorter (Beckman Coulter, Cambridge UK) with the […] laser line from a Coherent I-90C tenable argon ion (Coherent, Santa Clara, Calif.). TdTomato fluorescence was detected by a 555LP dichroic long pass and a 580/30 nm band pass filter. Acquisition and analysis of cells was performed using Summit 4.3 software. After sorting, cells were immediately placed in RNA protect cell reagent (Ambion, Paisley, Renfrew, UK) and stored at −80° C. before RNA extraction. For counting numbers of circulating tumor cells, TdTomato fluorescence was detected using a 561 nm laser and an YL1-A filter (585/16 emission filter). Acquisition and analysis of cells was performed using Attune N×T software.

Q: Which “average length of CD34+ blood vessels in trabecular bone” value ([1]; IL-1Ra 1 mg/kg daily (BALB/c nude), canakinumab single dose (C57BL/6), p<0.01) does the source give for “canakinumab: high-affinity, fully human monoclonal antibody of the IgG1/k to interleukin-1β” here?
A: reduced the average length

Q: And the “endothelin 1 concentration (ELISA)” value ([1]; compared with control, p<0.01)?
A: reduced concentrations

Q: And the “VEGF concentration (ELISA)” value ([1]; compared with control, p<0.01 IL-1R antagonist, p<0.001 canakinumab)?
A: reduced concentrations

Q: What about the “mice with metastasis detected in human bone implants” value ([2]; IL-1Ra 1 mg/kg daily, canakinumab sc every 14 days, from 7 days after tumor cell injection, control 7 out of 10) of the same substance?
A: 1 out of 10

Q: And the “size of bone metastases” value ([2]; luciferase imaging, vs control group)?
A: smaller than those detected in the control group

Q: What about the “tumor cells counted in whole blood” value ([2]; placebo 108 tumor cells/ml) of the same substance?
A: 3 tumor cells/ml

Reference: US20220056123A1, “USE OF IL-1BETA BINDING ANTIBODIES” (NOVARTIS AG, priority 2018, published 2022)
